# From patent US20050058600A1, “3,3'-Diindolylmethane antiandrogenic compositions” (priority 2003, published 2005)
# Substitutions are numbered along the chain they refer to.
# Columns and labels:
# AR [1] = biological target: T1, AR (Homo sapiens, UniProt P10275); experiment: pPSA-Luc / MMTV-Luc reporter assay in PC-3 cells with or without AR expression vector; format: cell-based; settings: PC-3 co-transfected with AR expression vector; pPSA-Luc, same with MMTV-Luc
# T1 construct: expressed in transfected cells; host or cells: PC-3
# T1 sequence (P10275 1-920): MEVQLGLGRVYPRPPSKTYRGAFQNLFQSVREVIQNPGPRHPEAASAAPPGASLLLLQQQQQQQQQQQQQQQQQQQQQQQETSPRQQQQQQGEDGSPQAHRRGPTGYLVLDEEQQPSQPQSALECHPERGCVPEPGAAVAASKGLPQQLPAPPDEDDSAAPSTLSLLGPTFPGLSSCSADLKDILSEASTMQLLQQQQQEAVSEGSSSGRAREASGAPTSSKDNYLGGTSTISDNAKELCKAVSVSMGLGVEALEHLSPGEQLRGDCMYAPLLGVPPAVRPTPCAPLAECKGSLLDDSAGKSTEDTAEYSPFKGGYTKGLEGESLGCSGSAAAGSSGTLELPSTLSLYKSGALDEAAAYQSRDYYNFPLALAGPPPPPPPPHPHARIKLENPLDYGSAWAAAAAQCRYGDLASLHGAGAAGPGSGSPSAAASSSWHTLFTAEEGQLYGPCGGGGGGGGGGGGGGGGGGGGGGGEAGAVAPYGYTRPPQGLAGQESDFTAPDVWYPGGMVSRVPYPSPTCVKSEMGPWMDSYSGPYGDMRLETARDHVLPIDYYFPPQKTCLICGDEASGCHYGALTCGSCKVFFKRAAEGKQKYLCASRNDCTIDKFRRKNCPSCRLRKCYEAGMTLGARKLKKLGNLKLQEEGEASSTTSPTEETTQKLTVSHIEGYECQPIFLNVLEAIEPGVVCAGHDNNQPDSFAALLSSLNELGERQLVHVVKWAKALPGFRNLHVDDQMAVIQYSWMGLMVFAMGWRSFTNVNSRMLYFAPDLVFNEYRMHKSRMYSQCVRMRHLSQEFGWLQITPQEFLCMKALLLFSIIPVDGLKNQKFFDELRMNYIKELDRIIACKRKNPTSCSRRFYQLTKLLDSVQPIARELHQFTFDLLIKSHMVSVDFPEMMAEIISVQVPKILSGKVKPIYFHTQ
# Procedure: (§1) Plasmid Reporters and Expression Vectors. The ARE responsive luciferase reporter plasmid, pPSA-630 luciferase (pPSA-Luc) was prepared as previously described (29). pPSA-Luc contains the PSA promoter region (−630 to 12) with three AREs, all of which are critical to the activity of the pPSA-Luc promoter. The MMTV-Luc contains one consensus ARE and the expression vector, pCMV-hAR constitutively expresses a fully functional human androgen receptor. The pCMV-GFP-rAR was prepared as previously described (30).
# (§2) Transient Transfections with Reporters and Luciferase Assay. LNCaP and PC-3 cells were transfected, with some modifications, as previously described (20). For AR transactivation, cells were transfected with 0.1 μg of MMTV-Luc or pPSA-Luc per plate. Co-transfection experiments with pCMV-hAR or pCMV-GFP-rAR, 0.1 μg per plate was also used. For experiments involving GFP fluorescence imaging, treatments were not added until 30 h after transfection.
# AR [2] = experiment: as above; format: cell-based, human
# Procedure: as §1, §2
# [3] = tested on: benzo(a)pyrene (BP)-induced tumors of the forestomach; settings: mice; cited from earlier work
# AR [4] = biological target: T2, AR (Homo sapiens, UniProt P10275, T878A); experiment: MMTV-Luc / pPSA-Luc reporter assay in LNCaP cells; format: cell-based
# T2 construct: 95 μL of either LNCaP cell extracts or recombinant AR protein; endogenous in cells; host or cells: LNCaP
# T2 sequence (P10275 1-920 T878A): T1 sequence (P10275 1-920) with T878A
# Procedure: as §1, §2
# [5] = tested on: BP-induced pulmonary adenomas; settings: mice; cited from earlier work
# breast cancer cells = settings: in culture; cited from earlier work
smiles,measurement,setting,value
"c1ccc2c(Cc3c[nH]c4ccccc34)c[nH]c2c1 [DIM, 3,3′-diindolylmethane]",inhibition of DHT-induced transactivation,AR [1],concentration-dependent inhibition
same,effect on pPSA-Luc reporter,AR [2]; PC-3 without co-transfection of an AR expression vector,has no effect
same,transactivation of reporter genes by compound alone,"AR [2]; either cell line, with or without co-transfection of wild-type AR",did not induce transactivation
same,incidence of BP-induced tumors of the forestomach,[3],reduced the incidence
same,inhibition at 1 µM,"AR [4]; read-out: inhibition of DHT induction of androgen-responsive genes, 1 μM, both MMTV-Luc and pPSA-Luc",> 50%
same,inhibition at 10 µM,"AR [4]; read-out: inhibition of DHT induction of androgen-responsive genes, 10 μM, both MMTV-Luc and pPSA-Luc",> 90%
same,transactivation of reporter genes by compound alone,AR [4]; without DHT,failed to induce transactivation
same,incidence of BP-induced pulmonary adenomas,[5],reduced the incidence
same,programmed cell death in human breast tumor cells,breast cancer cells,induced programmed cell death
same,proliferation of breast cancer cells,breast cancer cells,inhibit proliferation
